The source of these data is ChEMBL document CHEMBL1146255, “Synthesis of bisdesmosidic kryptogenyl saponins using the 'random glycosylation' strategy and evaluation of their antitumor activity” (Bioorg Med Chem Lett, 2007).

What all share (settings): Homo sapiens
The subject of assay [1] is HeLa. The assay is described as follows: Antitumor activity against HeLa cells at 10 uM by MTT assay. Format: functional.
In assay [2] the test system is HeLa. The assay is described as follows: Antitumor activity against HeLa cells by MTT assay. Format: functional, cell-based. In general terms: Tetrazolium dyes change colour on reduction, which living cells bring about.
Assay [3] relates to HeLa. The assay is described as follows: Antitumor activity against HeLa cells at 1 uM by MTT assay. Format: functional.
Assay [4] relates to HeLa. The assay is described as follows: Antitumor activity against HeLa cells at 0.1 uM by MTT assay. Format: functional.
Assay [5] concerns HeLa. The assay is described as follows: Antitumor activity against HeLa cells at 10 nM by MTT assay. Format: functional.

With `C[C@H](CCC(=O)[C@@H](C)[C@H]1C(=O)C[C@H]2[C@@H]3CC=C4C[C@@H](O[C@@H]5OC[C@H](O)[C@H](O)[C@H]5O)CC[C@]4(C)[C@H]3CC[C@]12C)CO[C@@H]1OC[C@H](O)[C@H](O)[C@H]1O`, in the assay on HeLa [1], testing at 10 µM gave an inhibition of 62%. Inhibition in the assay on HeLa [2] was half-maximal at 4.25 µM (IC50). In addition, the inhibition (usually the drop in the measured response relative to a control, in per cent) at 1 µM with HeLa [3] came to 4.34%. For the same molecule, the inhibition at 0.1 µM with HeLa [4] amounted to 1.64%. The molecule further registered an inhibition at 0.01 µM in the assay with HeLa [5] of 0.26%.

`C[C@H](CCC(=O)[C@@H](C)[C@H]1C(=O)C[C@H]2[C@@H]3CC=C4C[C@@H](O[C@@H]5O[C@@H](C)[C@H](O)[C@@H](O)[C@H]5O)CC[C@]4(C)[C@H]3CC[C@]12C)CO[C@@H]1O[C@@H](C)[C@H](O)[C@@H](O)[C@H]1O` showed an inhibition at 10 µM in the assay on HeLa [1] of 26.2%. The 50% inhibitory concentration (IC50) (in general, the concentration that gives 50% inhibition) in the assay with HeLa [2] was > 10 µM. This molecule showed an inhibition at 1 µM with HeLa [3] of 21.2%. Also, the inhibition at 0.1 µM in the assay on HeLa [4] was 14.3%. Moreover, the inhibition at 0.01 µM in the assay with HeLa [5] is 7.19%.

`C[C@H](CCC(=O)[C@@H](C)[C@H]1C(=O)C[C@H]2[C@@H]3CC=C4C[C@@H](O[C@@H]5OC[C@@H](O)[C@H](O)[C@H]5O)CC[C@]4(C)[C@H]3CC[C@]12C)CO[C@@H]1O[C@H](CO)[C@@H](O)[C@H](O)[C@H]1O` displayed an inhibition at 10 µM in the assay with HeLa [1] of 30.9%. The IC50 with HeLa [2] is > 10 µM. This molecule had an inhibition at 1 µM in the assay on HeLa [3] of 23%. This molecule also displayed an inhibition at 0.1 µM in the assay on HeLa [4] of 19.3%. This molecule showed an inhibition at 0.01 µM in the assay on HeLa [5] of 17.5%.

`C[C@H](CCC(=O)[C@@H](C)[C@H]1C(=O)C[C@H]2[C@@H]3CC=C4C[C@@H](O[C@@H]5O[C@@H](C)[C@H](O)[C@@H](O)[C@H]5O)CC[C@]4(C)[C@H]3CC[C@]12C)CO[C@@H]1OC[C@H](O)[C@H](O)[C@H]1O` showed an inhibition at 10 µM with HeLa [1] of 60.1%. In addition, the IC50 with HeLa [2] was 8.36 µM. Also, the inhibition at 1 µM in the assay on HeLa [3] came to 6.34%. In the assay with HeLa [4], this molecule yielded an inhibition at 0.1 µM of 6.93%. The molecule also yielded an inhibition at 0.01 µM with HeLa [5] of 1.35%.

Molecule `C[C@H](CCC(=O)[C@@H](C)[C@H]1C(=O)C[C@H]2[C@@H]3CC=C4C[C@@H](O[C@@H]5OC[C@H](O)[C@H](O)[C@H]5O)CC[C@]4(C)[C@H]3CC[C@]12C)CO[C@@H]1O[C@@H](CO)[C@H](O)[C@@H](O)[C@@H]1O` registered an inhibition at 10 µM in the assay on HeLa [1] of 9.71%. For the same molecule, in the assay with HeLa [2], the IC50 is > 10 µM. In the assay with HeLa [3], this molecule showed an inhibition at 1 µM of 4.79%. The same molecule showed an inhibition at 0.1 µM in the assay on HeLa [4] of 3.84%. Besides, the inhibition at 0.01 µM in the assay on HeLa [5] is 3.25%.

In the assay on HeLa [1], `C[C@H](CCC(=O)[C@@H](C)[C@H]1C(=O)C[C@H]2[C@@H]3CC=C4C[C@@H](O[C@@H]5OC[C@H](O)[C@H](O)[C@H]5O)CC[C@]4(C)[C@H]3CC[C@]12C)CO[C@@H]1OC[C@@H](O)[C@H](O)[C@H]1O` gave an inhibition at 10 µM of 11.8%. In addition, the IC50 in the assay with HeLa [2] is > 10 µM. Further, 1 µM produced 2.84% inhibition in the assay with HeLa [3]. The molecule also registered an inhibition at 0.1 µM in the assay with HeLa [4] of 1.79%. Further, the inhibition at 0.01 µM in the assay with HeLa [5] came to 0.98%.

Consider `C[C@H](CCC(=O)[C@@H](C)[C@H]1C(=O)C[C@H]2[C@@H]3CC=C4C[C@@H](O[C@@H]5O[C@@H](C)[C@H](O)[C@@H](O)[C@H]5O)CC[C@]4(C)[C@H]3CC[C@]12C)CO[C@@H]1O[C@H](CO)[C@@H](O)[C@H](O)[C@H]1O`, for which, in the assay with HeLa [1], testing at 10 µM gave an inhibition of 15.1%. In the assay with HeLa [2], the IC50 is > 10 µM. In the assay on HeLa [3], this molecule registered an inhibition at 1 µM of 1.67%. Further, in the assay with HeLa [4], at 0.1 µM the inhibition was 1.66%. The same molecule came in with an inhibition at 0.01 µM in the assay with HeLa [5] of 0.16%.

Turning to `C[C@@H](CO)CCC(=O)[C@@H](C)[C@H]1C(=O)C[C@H]2[C@@H]3CC=C4C[C@@H](O)CC[C@]4(C)[C@H]3CC[C@]12C`, the inhibition at 10 µM in the assay with HeLa [1] was determined as 22.3%. In the assay with HeLa [2], the IC50 is > 10 µM. Besides, the inhibition at 1 µM in the assay with HeLa [3] stood at 17.3%. Further, testing at 0.1 µM in the assay with HeLa [4] gave an inhibition of 13.8%. In the assay with HeLa [5], this molecule returned an inhibition at 0.01 µM of 9.49%.

For `C[C@H](CCC(=O)[C@@H](C)[C@H]1C(=O)C[C@H]2[C@@H]3CC=C4C[C@@H](O[C@@H]5OC[C@@H](O)[C@H](O)[C@H]5O)CC[C@]4(C)[C@H]3CC[C@]12C)CO[C@@H]1OC[C@@H](O)[C@H](O)[C@H]1O`, the inhibition at 10 µM with HeLa [1] turned out to be 17.6%. In the assay on HeLa [2], the half-maximal inhibitory concentration (IC50) is > 10 µM. This molecule also registered an inhibition at 1 µM with HeLa [3] of 16.3%. Also, the inhibition at 0.1 µM in the assay with HeLa [4] was found to be 14.2%. In the assay on HeLa [5], this molecule returned an inhibition at 0.01 µM of 6%.

In the case of `CC(=O)OC[C@H](C)CCC(=O)[C@@H](C)[C@H]1C(=O)C[C@H]2[C@@H]3CC=C4CC(OC(=O)c5ccccc5)CC[C@]4(C)[C@H]3CC[C@]12C` (stereo not given in full), 10 µM produced 18.5% inhibition in the assay with HeLa [1]. Moreover, in the assay with HeLa [2], the IC50 was > 10 µM. Moreover, in the assay on HeLa [3], testing at 1 µM gave an inhibition of 11%. Further, in the assay with HeLa [4], 0.1 µM produced 12.1% inhibition. In the assay on HeLa [5], this molecule showed an inhibition at 0.01 µM of 8.33%.

`C[C@H](CCC(=O)[C@@H](C)[C@H]1C(=O)C[C@H]2[C@@H]3CC=C4C[C@@H](O[C@@H]5O[C@H](CO)[C@@H](O)[C@H](O)[C@H]5O)CC[C@]4(C)[C@H]3CC[C@]12C)CO[C@@H]1O[C@H](CO)[C@@H](O)[C@H](O)[C@H]1O` registered an inhibition at 10 µM with HeLa [1] of 3.46%. Besides, the concentration for half-maximal inhibition (IC50) in the assay on HeLa [2] was > 10 µM. In addition, in the assay with HeLa [3], the inhibition at 1 µM was found to be 2.31%. Also, in the assay on HeLa [4], the inhibition at 0.1 µM worked out at 1.78%. This molecule came in with an inhibition at 0.01 µM in the assay on HeLa [5] of 0.46%.

In turn, `C[C@H](CCC(=O)[C@@H](C)[C@H]1C(=O)C[C@H]2[C@@H]3CC=C4C[C@@H](O[C@@H]5O[C@H](CO)[C@@H](O)[C@H](O)[C@H]5O)CC[C@]4(C)[C@H]3CC[C@]12C)CO[C@@H]1O[C@@H](C)[C@H](O)[C@@H](O)[C@H]1O` gave an inhibition at 10 µM in the assay on HeLa [1] of 10.5%. Also, in the assay on HeLa [2], the 50% inhibitory concentration (IC50) is > 10 µM. Moreover, in the assay with HeLa [3], 1 µM produced 9.94% inhibition. In the assay with HeLa [4], this molecule gave an inhibition at 0.1 µM of 7.16%. Besides, the inhibition at 0.01 µM in the assay with HeLa [5] is 3.42%.

In turn, `C[C@H](CCC(=O)[C@@H](C)[C@H]1C(=O)C[C@H]2[C@@H]3CC=C4C[C@@H](O[C@@H]5O[C@@H](C)[C@H](O)[C@@H](O)[C@H]5O)CC[C@]4(C)[C@H]3CC[C@]12C)CO[C@@H]1OC[C@@H](O)[C@H](O)[C@H]1O` displayed an inhibition at 10 µM in the assay on HeLa [1] of 28.5%. The IC50 with HeLa [2] is > 10 µM. This molecule also yielded an inhibition at 1 µM in the assay with HeLa [3] of 20.7%. Further, the inhibition at 0.1 µM with HeLa [4] was determined as 20.1%. This molecule also came in with an inhibition at 0.01 µM in the assay with HeLa [5] of 13.6%.

With `C[C@H](CCC(=O)[C@@H](C)[C@H]1C(=O)C[C@H]2[C@@H]3CC=C4C[C@@H](O[C@@H]5OC[C@@H](O)[C@H](O)[C@H]5O)CC[C@]4(C)[C@H]3CC[C@]12C)CO[C@@H]1OC[C@H](O)[C@H](O)[C@H]1O`, in the assay with HeLa [1], the inhibition at 10 µM is 30.9%. In the assay with HeLa [2], the IC50 was > 10 µM. Moreover, the inhibition at 1 µM with HeLa [3] was 10.6%. Also, 0.1 µM produced 5.45% inhibition with HeLa [4]. The molecule also yielded an inhibition at 0.01 µM in the assay on HeLa [5] of 0.68%.

In the assay on HeLa [1], `C[C@H](CCC(=O)[C@@H](C)[C@H]1C(=O)C[C@H]2[C@@H]3CC=C4C[C@@H](O[C@@H]5OC[C@H](O)[C@H](O)[C@H]5O)CC[C@]4(C)[C@H]3CC[C@]12C)CO[C@@H]1O[C@@H](C)[C@H](O)[C@@H](O)[C@H]1O` had an inhibition at 10 µM of 10.3%. In the assay with HeLa [2], the IC50 is > 10 µM. Besides, the inhibition at 1 µM in the assay with HeLa [3] is 9.25%. Further, in the assay with HeLa [4], at 0.1 µM the inhibition was 7.51%. The molecule further had an inhibition at 0.01 µM in the assay on HeLa [5] of 6.36%.

In the assay with HeLa [1], `C[C@H](CCC(=O)[C@@H](C)[C@H]1C(=O)C[C@H]2[C@@H]3CC=C4C[C@@H](O[C@@H]5O[C@H](CO)[C@@H](O)[C@H](O)[C@H]5O)CC[C@]4(C)[C@H]3CC[C@]12C)CO[C@@H]1OC[C@@H](O)[C@H](O)[C@H]1O` yielded an inhibition at 10 µM of 24.8%. Also, the IC50 with HeLa [2] is > 10 µM. For the same molecule, in the assay on HeLa [3], the inhibition at 1 µM came out at 14.5%. Moreover, 0.1 µM produced 12.8% inhibition with HeLa [4]. The molecule further displayed an inhibition at 0.01 µM in the assay on HeLa [5] of 7.95%.

Molecule `C[C@H](CCC(=O)[C@@H](C)[C@H]1C(=O)C[C@H]2[C@@H]3CC=C4C[C@@H](O[C@@H]5O[C@H](CO)[C@@H](O)[C@H](O)[C@H]5O)CC[C@]4(C)[C@H]3CC[C@]12C)CO[C@@H]1OC[C@H](O)[C@H](O)[C@H]1O` gave an inhibition at 10 µM in the assay with HeLa [1] of 4.36%. Besides, in the assay on HeLa [2], the IC50 is > 10 µM. 1 µM produced 3.67% inhibition in the assay with HeLa [3]. Moreover, the inhibition at 0.1 µM in the assay with HeLa [4] came to 1.05%. In the assay on HeLa [5], this molecule displayed an inhibition at 0.01 µM of 0.87%.
